Assay results reported in patent publication EP0353754A2, “Radioactively marked benzodiazepin derivates” (F. HOFFMANN-LA ROCHE AG, priority 1988, dated 1990).

Assay: Organ distribution of injected radioactivity in rats after I.V. injection
Format: in vivo, Ratten (weiblich, Wistar, spf)
Conditions: Ratte
Procedure: Es werden je 3 Ratten (weiblich, Wistar, spf) zu sieben verschiedenen Zeitpunkten (2′, 10′, 20′, 40′, 1h, 6h, 15h) gemessen. Das Gewicht der Tiere lag zwischen 113 und 144 g. Die Fütterung erfolgte ad libitum. Die I.V. injizierten Dosen variierten von 184 bis 355 µCi in jeweils 0,2 ml.

In the case of CCOC(=O)c1ncn2c1CN(C)C(=O)c1c([123I])cccc1-2 [Aethyl-7-¹²³Jod-5,6-dihydro-5-methyl-6-oxo-4H-imidazo[1,5-a][1,4]benzodiazepin-3-carboxylat], the “Prozent der injizierten Aktivität in den entsprechend Organen” value (“Prozent der injizierten Aktivität” below) (Blase, 2′) was 0,03 Prozent der injizierten Aktivität, the “Prozent der injizierten Aktivität” value (Blase, 10′) was 0,06 Prozent der injizierten Aktivität and the “Prozent der injizierten Aktivität” value (Blase, 20′) was 0,03 Prozent der injizierten Aktivität. For the same molecule, the “Prozent der injizierten Aktivität” value (Blase, 40′) was 0,01 Prozent der injizierten Aktivität, the “Prozent der injizierten Aktivität” value (Blase, 60′) was 0,03 Prozent der injizierten Aktivität and the “Prozent der injizierten Aktivität” value (Blase, 6h) was 0,09 Prozent der injizierten Aktivität. For the same molecule, the “Prozent der injizierten Aktivität” value (Blase, 15h) was 0,0022 Prozent der injizierten Aktivität, the “Prozent der injizierten Aktivität” value (Darm, 2′) was 9,28 Prozent der injizierten Aktivität and the “Prozent der injizierten Aktivität” value (Darm, 10′) was 12,70 Prozent der injizierten Aktivität. For the same molecule, the “Prozent der injizierten Aktivität” value (Darm, 20′) was 22,53 Prozent der injizierten Aktivität, the “Prozent der injizierten Aktivität” value (Darm, 40′) was 25,54 Prozent der injizierten Aktivität and the “Prozent der injizierten Aktivität” value (Darm, 60′) was 28,48 Prozent der injizierten Aktivität. For the same molecule, the “Prozent der injizierten Aktivität” value (Darm, 6h) was 19,50 Prozent der injizierten Aktivität, the “Prozent der injizierten Aktivität” value (Darm, 15h) was 1,012 Prozent der injizierten Aktivität and the “Prozent der injizierten Aktivität” value (Femur, 2′) was 0,39 Prozent der injizierten Aktivität. For the same molecule, the “Prozent der injizierten Aktivität” value (Femur, 10′) was 0,25 Prozent der injizierten Aktivität, the “Prozent der injizierten Aktivität” value (Femur, 20′) was 0,14 Prozent der injizierten Aktivität and the “Prozent der injizierten Aktivität” value (Femur, 40′) was 0,06 Prozent der injizierten Aktivität. For the same molecule, the “Prozent der injizierten Aktivität” value (Femur, 60′) was 0,04 Prozent der injizierten Aktivität, the “Prozent der injizierten Aktivität” value (Femur, 6h) was 0,01 Prozent der injizierten Aktivität and the “Prozent der injizierten Aktivität” value (Femur, 15h) was 0,004 Prozent der injizierten Aktivität. The “Prozent der injizierten Aktivität” value (Herz, 2′) was 0,58 Prozent der injizierten Aktivität, the “Prozent der injizierten Aktivität” value (Herz, 10′) was 0,37 Prozent der injizierten Aktivität and the “Prozent der injizierten Aktivität” value (Herz, 20′) was 0,17 Prozent der injizierten Aktivität. The “Prozent der injizierten Aktivität” value (Herz, 40′) was 0,06 Prozent der injizierten Aktivität, the “Prozent der injizierten Aktivität” value (Herz, 60′) was 0,03 Prozent der injizierten Aktivität and the “Prozent der injizierten Aktivität” value (Herz, 6h) was 0,009 Prozent der injizierten Aktivität. The “Prozent der injizierten Aktivität” value (Herz, 15h) was 0,0035 Prozent der injizierten Aktivität, the “Prozent der injizierten Aktivität” value (Hirn, 2′) was 3,11 Prozent der injizierten Aktivität and the “Prozent der injizierten Aktivität” value (Hirn, 10′) was 5,38 Prozent der injizierten Aktivität. The “Prozent der injizierten Aktivität” value (Hirn, 20′) was 4,20 Prozent der injizierten Aktivität, the “Prozent der injizierten Aktivität” value (Hirn, 40′) was 4,02 Prozent der injizierten Aktivität and the “Prozent der injizierten Aktivität” value (Hirn, 60′) was 2,42 Prozent der injizierten Aktivität. For the same molecule, the “Prozent der injizierten Aktivität” value (Hirn, 6h) was 0,08 Prozent der injizierten Aktivität, the “Prozent der injizierten Aktivität” value (Hirn, 15h) was 0,0015 Prozent der injizierten Aktivität and the “Prozent der injizierten Aktivität” value (Kot + Urin, 2′) was 0,05 Prozent der injizierten Aktivität. The “Prozent der injizierten Aktivität” value (Kot + Urin, 10′) was 6,17 Prozent der injizierten Aktivität, the “Prozent der injizierten Aktivität” value (Kot + Urin, 20′) was 19,39 Prozent der injizierten Aktivität and the “Prozent der injizierten Aktivität” value (Kot + Urin, 40′) was 48,72 Prozent der injizierten Aktivität. For the same molecule, the “Prozent der injizierten Aktivität” value (Kot + Urin, 60′) was 51,71 Prozent der injizierten Aktivität, the “Prozent der injizierten Aktivität” value (Kot + Urin, 6h) was 48,81 Prozent der injizierten Aktivität and the “Prozent der injizierten Aktivität” value (Kot + Urin, 15h) was 42,69 Prozent der injizierten Aktivität. For the same molecule, the “Prozent der injizierten Aktivität” value (Leber, 2′) was 16,90 Prozent der injizierten Aktivität, the “Prozent der injizierten Aktivität” value (Leber, 10′) was 34,37 Prozent der injizierten Aktivität and the “Prozent der injizierten Aktivität” value (Leber, 20′) was 17,61 Prozent der injizierten Aktivität. For the same molecule, the “Prozent der injizierten Aktivität” value (Leber, 40′) was 3,90 Prozent der injizierten Aktivität, the “Prozent der injizierten Aktivität” value (Leber, 60′) was 1,29 Prozent der injizierten Aktivität and the “Prozent der injizierten Aktivität” value (Leber, 6h) was 0,15 Prozent der injizierten Aktivität. For the same molecule, the “Prozent der injizierten Aktivität” value (Leber, 15h) was 0,107 Prozent der injizierten Aktivität, the “Prozent der injizierten Aktivität” value (Lunge, 2′) was 1,04 Prozent der injizierten Aktivität and the “Prozent der injizierten Aktivität” value (Lunge, 10′) was 0,81 Prozent der injizierten Aktivität. The “Prozent der injizierten Aktivität” value (Magen, 2′) was 0,81 Prozent der injizierten Aktivität, the “Prozent der injizierten Aktivität” value (Magen, 10′) was 1,20 Prozent der injizierten Aktivität and the “Prozent der injizierten Aktivität” value (Magen, 20′) was 1,28 Prozent der injizierten Aktivität. For the same molecule, the “Prozent der injizierten Aktivität” value (Magen, 40′) was 1,37 Prozent der injizierten Aktivität, the “Prozent der injizierten Aktivität” value (Magen, 60′) was 1,96 Prozent der injizierten Aktivität and the “Prozent der injizierten Aktivität” value (Magen, 6h) was 1,35 Prozent der injizierten Aktivität. The “Prozent der injizierten Aktivität” value (Magen, 15h) was 0,346 Prozent der injizierten Aktivität, the “Prozent der injizierten Aktivität” value (Milz, 2′) was 0,26 Prozent der injizierten Aktivität and the “Prozent der injizierten Aktivität” value (Milz, 10′) was 0,21 Prozent der injizierten Aktivität. For the same molecule, the “Prozent der injizierten Aktivität” value (Milz, 20′) was 0,11 Prozent der injizierten Aktivität, the “Prozent der injizierten Aktivität” value (Milz, 40′) was 0,06 Prozent der injizierten Aktivität and the “Prozent der injizierten Aktivität” value (Milz, 60′) was 0,03 Prozent der injizierten Aktivität. For the same molecule, the “Prozent der injizierten Aktivität” value (Milz, 6h) was 0,008 Prozent der injizierten Aktivität, the “Prozent der injizierten Aktivität” value (Milz, 15h) was 0,0035 Prozent der injizierten Aktivität and the “Prozent der injizierten Aktivität” value (Nieren, 2′) was 3,15 Prozent der injizierten Aktivität. The “Prozent der injizierten Aktivität” value (Nieren, 10′) was 7,48 Prozent der injizierten Aktivität, the “Prozent der injizierten Aktivität” value (Nieren, 20′) was 6,25 Prozent der injizierten Aktivität and the “Prozent der injizierten Aktivität” value (Nieren, 40′) was 1,53 Prozent der injizierten Aktivität. For the same molecule, the “Prozent der injizierten Aktivität” value (Nieren, 60′) was 0,79 Prozent der injizierten Aktivität, the “Prozent der injizierten Aktivität” value (Nieren, 6h) was 0,04 Prozent der injizierten Aktivität and the “Prozent der injizierten Aktivität” value (Nieren, 15h) was 0,009 Prozent der injizierten Aktivität. For the same molecule, the “Prozent der injizierten Aktivität” value (Ovar, 2′) was 0,09 Prozent der injizierten Aktivität, the “Prozent der injizierten Aktivität” value (Ovar, 10′) was 0,06 Prozent der injizierten Aktivität and the “Prozent der injizierten Aktivität” value (Ovar, 20′) was 0,05 Prozent der injizierten Aktivität. The “Prozent der injizierten Aktivität” value (Ovar, 40′) was 0,02 Prozent der injizierten Aktivität, the “Prozent der injizierten Aktivität” value (Ovar, 60′) was 0,02 Prozent der injizierten Aktivität and the “Prozent der injizierten Aktivität” value (Ovar, 6h) was 0,003 Prozent der injizierten Aktivität. The “Prozent der injizierten Aktivität” value (Ovar, 15h) was 0,0008 Prozent der injizierten Aktivität, the “Prozent der injizierten Aktivität” value (Restkörper, 2′) was 63,94 Prozent der injizierten Aktivität and the “Prozent der injizierten Aktivität” value (Restkörper, 10′) was 29,92 Prozent der injizierten Aktivität. The “Prozent der injizierten Aktivität” value (Restkörper, 20′) was 25,92 Prozent der injizierten Aktivität, the “Prozent der injizierten Aktivität” value (Restkörper, 40′) was 11,04 Prozent der injizierten Aktivität and the “Prozent der injizierten Aktivität” value (Restkörper, 60′) was 7,09 Prozent der injizierten Aktivität. The “Prozent der injizierten Aktivität” value (Restkörper, 6h) was 2,88 Prozent der injizierten Aktivität, the “Prozent der injizierten Aktivität” value (Restkörper, 15h) was 1,30 Prozent der injizierten Aktivität and the “Prozent der injizierten Aktivität” value (Schilddrüse, 2′) was 0,18 Prozent der injizierten Aktivität. For the same molecule, the “Prozent der injizierten Aktivität” value (Schilddrüse, 10′) was 0,15 Prozent der injizierten Aktivität, the “Prozent der injizierten Aktivität” value (Schilddrüse, 20′) was 0,18 Prozent der injizierten Aktivität and the “Prozent der injizierten Aktivität” value (Schilddrüse, 40′) was 0,03 Prozent der injizierten Aktivität. The “Prozent der injizierten Aktivität” value (Schilddrüse, 60′) was 0,02 Prozent der injizierten Aktivität, the “Prozent der injizierten Aktivität” value (Schilddrüse, 6h) was 0,008 Prozent der injizierten Aktivität and the “Prozent der injizierten Aktivität” value (Schilddrüse, 15h) was 0,0015 Prozent der injizierten Aktivität. For the same molecule, the “Prozent der injizierten Aktivität” value (Totalkörper, 2′) was 99,75 Prozent der injizierten Aktivität, the “Prozent der injizierten Aktivität” value (Totalkörper, 10′) was 92,96 Prozent der injizierten Aktivität and the “Prozent der injizierten Aktivität” value (Totalkörper, 20′) was 78,87 Prozent der injizierten Aktivität. The “Prozent der injizierten Aktivität” value (Totalkörper, 40′) was 47,80 Prozent der injizierten Aktivität, the “Prozent der injizierten Aktivität” value (Totalkörper, 60′) was 43,17 Prozent der injizierten Aktivität and the “Prozent der injizierten Aktivität” value (Totalkörper, 6h) was 24,16 Prozent der injizierten Aktivität.
